Experimental data: patent US7629150B2, “Transformed cell harboring DNA or RNA encoding sugar chain synthesizing agent having β1,3-N-acetylglucosaminyltransferase activity” (Kyowa Hakko Kirin Co., Ltd., priority 2000, dated 2009)

Tests used:
Type in all cases: biochemical
G6sec2 [1] = molecular target: T1, G6sec2 (Homo sapiens, UniProt Q9BYG0); assay: β1,3-N-acetylglucosaminyltransferase activity of purified FLAG peptide-fused G6 polypeptide, 2-aminobenzamide-labeled oligosaccharide substrates; conditions: second enzyme-adsorbed ANTI-FLAG M1 AFFINITY GEL (printed G6sec1-adsorbed gel) used as enzyme
T1 construct: made in house; host or cells: Sf21 insect cells infected with pVL1393-F2G6sec2-derived recombinant baculovirus
T1 sequence (Q9BYG0 39-378): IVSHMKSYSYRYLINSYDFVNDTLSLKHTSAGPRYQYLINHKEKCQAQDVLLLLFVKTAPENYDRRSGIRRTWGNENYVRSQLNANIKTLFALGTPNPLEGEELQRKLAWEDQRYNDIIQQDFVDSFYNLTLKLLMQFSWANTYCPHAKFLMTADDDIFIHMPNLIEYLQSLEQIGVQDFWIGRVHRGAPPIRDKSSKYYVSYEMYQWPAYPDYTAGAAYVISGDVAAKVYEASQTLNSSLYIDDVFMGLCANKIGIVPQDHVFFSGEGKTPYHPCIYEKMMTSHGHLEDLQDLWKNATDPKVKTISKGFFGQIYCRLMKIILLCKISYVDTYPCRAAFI

G6sec1 = molecular target: T2, G6sec1 (Homo sapiens, UniProt Q9BYG0); assay: as above; conditions: for Relative activity (%) Test 1 G6sec1: 2-aminobenzamide-labeled oligosaccharides, LNnT defined as 100%
T2 construct: made in house; host or cells: Sf21 insect cells infected with pVL1393-F2G6sec1-derived recombinant baculovirus
T2 sequence (Q9BYG0 36-378): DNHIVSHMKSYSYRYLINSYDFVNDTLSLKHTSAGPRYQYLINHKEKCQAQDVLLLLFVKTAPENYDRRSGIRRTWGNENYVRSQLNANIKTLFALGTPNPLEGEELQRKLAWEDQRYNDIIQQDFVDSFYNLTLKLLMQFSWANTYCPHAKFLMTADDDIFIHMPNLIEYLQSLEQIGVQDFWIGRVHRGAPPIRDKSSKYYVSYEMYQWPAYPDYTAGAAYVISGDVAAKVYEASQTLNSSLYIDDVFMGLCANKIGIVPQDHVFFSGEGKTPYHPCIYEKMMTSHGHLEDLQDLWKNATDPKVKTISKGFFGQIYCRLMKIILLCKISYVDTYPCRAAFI
Description: β1,3-N-Acetylglucosaminyltransferase activity of the FLAG peptide-fused G6 polypeptide secreted and produced in insect cells was measured by using the eluate prepared in Example 8(6). The method of Example 7 was used for the activity measurement.
As substrates, oligosaccharides [LNnT, Galβ1-4GlcNAcβ1-3Galβ1-4GlcNAc (hereinafter referred to as “2LN”), Galβ1-4GlcNAcβ1-3Galβ1-4GlcNAcβ1-3Galβ1-4GlcNAc (hereinafter referred to as “3LN”), Galβ1-4GlcNAcβ1-3Galβ1-4GlcNAcβ1-3Galβ1-4GlcNAcβ1-3Galβ1-4GlcNAc (hereinafter referred to as “4LN”), Galβ1-4GlcNAcβ1-3Galβ1-4GlcNAcβ-3Galβ1-4GlcNAcβ1-3Galβ1-4GlcNAcβ1-3Galβ1-4GlcNAc (hereinafter referred to as “5LN”), or Galβ1-4(SO3-6)GlcNAcβ1-3Galβ1-4(SO3-6)GlcNAc (hereinafter referred to as “L2L2”)] were labeled with 2-aminobenzamide and used. 2-Aminobenzamide-labeling of oligosaccharides was carried out using SIGMA 2AB glycan labeling kit (manufactured by Oxford Glycoscience) according to the manufacture's instructions of the kit. LNnT was purchased from Oxford Glycosystems. Other oligosaccharides were obtained from Seikagaku Corporation.
Specifically, the reaction was carried out at 37° C. for 16 hours in 20 μl of an assay solution [150 mmol/l sodium cacodylate (pH 7.2), 50 mmol/l UDP-GlcNAc (manufactured by SIGMA), 0.4% Triton CF-54, 10 mmol/l MnCl2, 5 μmol/12-aminobenzamide-labeled sugar chain substrate, the above purified enzyme solution], and then the product was detected by high performance liquid chromatography (HPLC, details will be described below). […]
The assay solution after completion of the reaction was treated at 100° C. for 5 minutes and then mixed with 50 μl of pure water for HPLC and centrifuged at 10,000×g for 5 minutes to obtain the supernatant. To a tube containing the assay solution, 50 μl of pure water for HPLC was added again, the tube was washed, and suparnatant was obtained by centrifugation at 10,000×g for 5 minutes and was combined with the first supernatant. Next, the supernatant was passed through Ultrafree-MC column (manufactured by Millipore) and a portion thereof (10 μl) was subjected to HPLC. The Ultrafree-MC column was used according to the method described in the manufacture's instructions attached thereto.
The HPLC was carried out using TSK-gel ODS-80Ts Column (4.6×300 mm; manufactured by TOSOH) as a column and 0.02 mol/l ammonium acetate buffer containing 7% methanol (pH 4.0) as an eluant at an elution temperature of 50° C. and a flow rate of 1 ml/min.
The product was detected using a fluorescence spectrophotometer FP-920 (manufactured by JASCO Corporation) (excitation wavelength: 330 nm, radiation wavelength: 420 nm).

G6sec2 [2] = molecular target: T1, G6sec2; assay: β1,3-N-acetylglucosaminyltransferase activity using unlabeled oligosaccharides as substrates (HPAE/PAD); conditions: unlabeled oligosaccharide 10 mmol/l, 37° C., 16 hours
Description: The glycosyltransferase reaction was carried out as follows. The reaction was carried out at 37° C. for 16 hours in 40 μl of an assay solution [50 mmol/l MOPS (pH 7.5), 5 mmol/l UDP-GlcNAc (manufactured by SIGMA), 5 mmol/l MnCl2, 10 mmol/l sugar chain substrate, a purified enzyme solution (G6sec2)]. Next, the mixture was treated at 100° C. for 5 minutes and then centrifuged at 10,000×g for 20 minutes to obtain a supernatant, and a part thereof was analyzed using HPAE/PAD ([…]; manufactured by DIONEX). The method was specifically carried out according to a conventional method [Anal. Biochem., 189, 151-162 (1990), J. Biol. Chem., 273, 433-440 (1998)].
As a purified enzyme (G6sec2), […] of the enzyme obtained in the above (2) was used. As substrates, unlabeled oligosaccharides [lactose (Galβ1-4Glc) and LNnT] were used.
After the reaction on each substrate using an assay solution containing UDP-GlcNAc (saccharide donor) and an assay solution containing no donor, analysis was carried out using HPAE/PAD and peaks appeared only in the assay solution containing UDP-GlcNAc were defined as products. The product was identified using coincidence of its elution time with that of standard sugar chain as the index. As standard sugar chains, GlcNAcβ1-3Galβ1,4Glc and GlcNAcβ1-3Galβ1,4GlcNAcβ1-3Galβ1-4Glc were used.

Structure (SMILES)	conversion efficiency of the substrate (G6sec2 [1])	Relative activity (%) Test 1 G6sec1 (G6sec1)	conversion efficiency of the substrate (G6sec1; G6sec1-adsorbed ANTI-FLAG M1 AFFINITY GEL used as enzyme)	conversion efficiency of the substrate into the product (G6sec1; G6sec1 eluate 1.5 μl, 2-aminobenzamide-labeled substrate, 37° C., 16 hours (Test 1))	conversion efficiency into the product (G6sec2 [2])
CC(=O)N[C@H]1[C@H](O[C@H]2[C@@H](O)[C@@H](CO)O[C@@H](O[C@H]3[C@H](O)[C@@H](O)C(O)O[C@@H]3CO)[C@@H]2O)O[C@H](CO)[C@@H](O[C@@H]2O[C@H](CO)[C@H](O)[C@H](O)[C@H]2O)[C@@H]1O (mixture of isomers) [LNnT, lacto-N-neotetraose]	20.2%	100%	6.64%	9.85%	0.48%
CC(=O)N[C@H]1[C@H](O[C@H]2[C@@H](O)[C@@H](CO)O[C@@H](O[C@H]3[C@H](O)[C@@H](NC(C)=O)C(O)O[C@@H]3CO)[C@@H]2O)O[C@H](CO)[C@@H](O[C@@H]2O[C@H](CO)[C@H](O)[C@H](O)[C@H]2O)[C@@H]1O (stereo partly drawn) [2LN, Galβ1-4GlcNAcβ1-3Galβ1-4GlcNAc]	–	81.4%	–	–	–
